Experimental data from patent US20260007681A1, “INDOLE DERIVATIVES AS ESTROGEN RECEPTOR DEGRADERS” (REGENTS OF THE UNIVERSITY OF MICHIGAN, priority 2022, published 2026).

biological target: ER (Homo sapiens (Human), UniProt P03372); test: Western blot analysis (Compounds B1-B278); type: cell-based; conditions: ER degradation by traditional Western blot; DC50 classes
How it was run: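 Compound-treated cells were lysed in RIPA buffer (Tris.HCl pH 7.6, 1% NP-40, deoxycholate, 0.1% SDS) with protease inhibitors; equal protein was resolved on 10% SDS-PAGE, transferred to PVDF and immunoblotted. Band intensities were quantified and normalized to GAPDH.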

Chain of ER (P03372 whole entry): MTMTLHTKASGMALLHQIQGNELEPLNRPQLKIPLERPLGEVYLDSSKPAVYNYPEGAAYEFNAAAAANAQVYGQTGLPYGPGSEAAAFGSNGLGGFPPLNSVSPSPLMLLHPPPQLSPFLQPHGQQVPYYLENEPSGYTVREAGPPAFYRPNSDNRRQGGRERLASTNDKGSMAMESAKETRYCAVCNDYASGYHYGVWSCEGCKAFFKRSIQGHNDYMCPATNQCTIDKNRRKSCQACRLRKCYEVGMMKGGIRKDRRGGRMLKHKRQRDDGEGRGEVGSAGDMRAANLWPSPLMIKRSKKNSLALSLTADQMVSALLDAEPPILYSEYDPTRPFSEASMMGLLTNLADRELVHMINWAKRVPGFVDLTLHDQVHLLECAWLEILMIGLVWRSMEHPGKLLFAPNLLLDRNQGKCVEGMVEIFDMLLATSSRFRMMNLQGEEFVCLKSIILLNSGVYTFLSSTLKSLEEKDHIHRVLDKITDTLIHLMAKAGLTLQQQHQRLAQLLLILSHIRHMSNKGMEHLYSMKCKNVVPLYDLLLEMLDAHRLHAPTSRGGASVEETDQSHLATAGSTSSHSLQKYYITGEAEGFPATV

| Compound | Traditional Western Degradation Potency |
| --- | --- |
| C[C@@H]1Cc2c([nH]c3ccccc23)[C@@H](c2c(F)cc(N3CCC4(CCN(C(=O)CN5Cc6cc7c(cc6C5)C(=O)N(C5CCC(=O)NC5=O)C7=O)CC4)CC3)cc2F)N1CC(C)(F)F (stereo partly drawn) [Compound B215, 6-(2-(9-(4-((1R,3R)-2-(2,2-difluoropropyl)-3-methyl-2,3,4,9-tetrahydro-1H-pyrido[3,4-b]indol-1-yl)-3,5-difluorophenyl)-3,9-diazaspiro[5.5]undecan-3-yl)-2-oxoethyl)-2-(2,6-dioxopiperidin-3-yl)-6,7-dihydropyrrolo[3,4-f]isoindole-1,3(2H,5H)-dione] | A (“A”: <10 nM) |
| C[C@@H]1Cc2c([nH]c3ccccc23)[C@@H](c2cnc(N3CCC4(CCN(C(=O)CN5Cc6cc7c(cc6C5)C(=O)N(C5CCC(=O)NC5=O)C7=O)CC4)CC3)nc2)N1CC(F)(F)F (stereo partly drawn) [Compound B216, 2-(2,6-dioxopiperidin-3-yl)-6-(2-(9-(5-((1R,3R)-3-methyl-2-(2,2,2-trifluoroethyl)-2,3,4,9-tetrahydro-1H-pyrido[3,4-b]indol-1-yl)pyrimidin-2-yl)-3,9-diazaspiro[5.5]undecan-3-yl)-2-oxoethyl)-6,7-dihydropyrrolo[3,4-f]isoindole-1,3(2H,5H)-dione] | A (“A”: <10 nM) |
| C[C@@H]1Cc2c([nH]c3ccccc23)[C@@H](c2cnc(N3CCC4(CC3)CN(C(=O)CN3Cc5cc6c(cc5C3)C(=O)N(C3CCC(=O)NC3=O)C6=O)C4)nc2)N1CC(F)(F)F (stereo partly drawn) [Compound B217, 2-(2,6-dioxopiperidin-3-yl)-6-(2-(7-(5-((1R,3R)-3-methyl-2-(2,2,2-trifluoroethyl)-2,3,4,9-tetrahydro-1H-pyrido[3,4-b]indol-1-yl)pyrimidin-2-yl)-2,7-diazaspiro[3.5]nonan-2-yl)-2-oxoethyl)-6,7-dihydropyrrolo[3,4-f]isoindole-1,3(2H,5H)-dione] | A (“A”: <10 nM) |
| C[C@@H]1Cc2c([nH]c3ccccc23)[C@@H](c2cnc(N3CCC(CN4CCC(N5Cc6cc7c(cc6C5)C(=O)N(C5CCC(=O)NC5=O)C7=O)CC4)CC3)nc2)N1CC(F)(F)F (stereo partly drawn) [Compound B218, 2-(2,6-dioxopiperidin-3-yl)-6-(1-((1-(5-((1R,3R)-3-methyl-2-(2,2,2-trifluoroethyl)-2,3,4,9-tetrahydro-1H-pyrido[3,4-b]indol-1-yl)pyrimidin-2-yl)piperidin-4-yl)methyl)piperidin-4-yl)-6,7-dihydropyrrolo[3,4-f]isoindole-1,3(2H,5H)-dione] | B (“B”: 10-100 nM) |
| C[C@@H]1Cc2c([nH]c3ccccc23)[C@@H](c2cnc(N3CCC(C(=O)N4CCC(N5Cc6cc7c(cc6C5)C(=O)N(C5CCC(=O)NC5=O)C7=O)CC4)CC3)nc2)N1CC(F)(F)F (stereo partly drawn) [Compound B219, 2-(2,6-dioxopiperidin-3-yl)-6-(1-(1-(5-((1R,3R)-3-methyl-2-(2,2,2-trifluoroethyl)-2,3,4,9-tetrahydro-1H-pyrido[3,4-b]indol-1-yl)pyrimidin-2-yl)piperidine-4-carbonyl)piperidin-4-yl)-6,7-dihydropyrrolo[3,4-f]isoindole-1,3(2H,5H)-dione] | A (“A”: <10 nM) |
| C[C@@H]1Cc2c([nH]c3ccccc23)[C@@H](c2cnc(N3CCC4(CCN(C(=O)CN5Cc6cc7c(cc6C5)C(=O)N(C5CCC(=O)NC5=O)C7=O)CC4)CC3)nc2)N1CC(F)F (stereo partly drawn) [Compound B220, 6-(2-(9-(5-((1R,3R)-2-(2,2-difluoroethyl)-3-methyl-2,3,4,9-tetrahydro-1H-pyrido[3,4-b]indol-1-yl)pyrimidin-2-yl)-3,9-diazaspiro[5.5]undecan-3-yl)-2-oxoethyl)-2-(2,6-dioxopiperidin-3-yl)-6,7-dihydropyrrolo[3,4-f]isoindole-1,3(2H,5H)-dione] | A (“A”: <10 nM) |
| C[C@@H]1Cc2c([nH]c3ccccc23)[C@@H](c2cnc(N3CCC4(CC3)CN(C(=O)CN3Cc5cc6c(cc5C3)C(=O)N(C3CCC(=O)NC3=O)C6=O)C4)nc2)N1CC(F)F (stereo partly drawn) [Compound B221, 6-(2-(7-(5-((1R,3R)-2-(2,2-difluoroethyl)-3-methyl-2,3,4,9-tetrahydro-1H-pyrido[3,4-b]indol-1-yl)pyrimidin-2-yl)-2,7-diazaspiro[3.5]nonan-2-yl)-2-oxoethyl)-2-(2,6-dioxopiperidin-3-yl)-6,7-dihydropyrrolo[3,4-f]isoindole-1,3(2H,5H)-dione] | A (“A”: <10 nM) |
| C[C@@H]1Cc2c([nH]c3ccccc23)[C@@H](c2cnc(N3CCC(C(=O)N4CCC(N5Cc6cc7c(cc6C5)C(=O)N(C5CCC(=O)NC5=O)C7=O)CC4)CC3)nc2)N1CC(F)F (stereo partly drawn) [Compound B222, 6-(1-(1-(5-((1R,3R)-2-(2,2-difluoroethyl)-3-methyl-2,3,4,9-tetrahydro-1H-pyrido[3,4-b]indol-1-yl)pyrimidin-2-yl)piperidine-4-carbonyl)piperidin-4-yl)-2-(2,6-dioxopiperidin-3-yl)-6,7-dihydropyrrolo[3,4-f]isoindole-1,3(2H,5H)-dione] | A (“A”: <10 nM) |
| C[C@@H]1Cc2c([nH]c3ccccc23)[C@@H](c2cnc(N3CCC(CN4CCC(N5Cc6cc7c(cc6C5)C(=O)N(C5CCC(=O)NC5=O)C7=O)CC4)CC3)nc2)N1CC(F)F (stereo partly drawn) [Compound B223, 6-(1-((1-(5-((1R,3R)-2-(2,2-difluoroethyl)-3-methyl-2,3,4,9-tetrahydro-1H-pyrido[3,4-b]indol-1-yl)pyrimidin-2-yl)piperidin-4-yl)methyl)piperidin-4-yl)-2-(2,6-dioxopiperidin-3-yl)-6,7-dihydropyrrolo[3,4-f]isoindole-1,3(2H,5H)-dione] | B (“B”: 10-100 nM) |
| C[C@@H]1Cc2c([nH]c3ccccc23)[C@@H](c2ccc(N3CCC4(CC3)CN(C(=O)CN3Cc5cc6c(cc5C3)C(=O)N(C3CCC(=O)NC3=O)C6=O)C4)cc2)N1CC(F)F (stereo partly drawn) [Compound B224, 6-(2-(7-(4-((1R,3R)-2-(2,2-difluoroethyl)-3-methyl-2,3,4,9-tetrahydro-1H-pyrido[3,4-b]indol-1-yl)phenyl)-2,7-diazaspiro[3.5]nonan-2-yl)-2-oxoethyl)-2-(2,6-dioxopiperidin-3-yl)-6,7-dihydropyrrolo[3,4-f]isoindole-1,3(2H,5H)-dione] | B (“B”: 10-100 nM) |
| C[C@@H]1Cc2c([nH]c3ccccc23)[C@@H](c2ccc(N3CCC(C(=O)N4CCC(N5Cc6cc7c(cc6C5)C(=O)N(C5CCC(=O)NC5=O)C7=O)CC4)CC3)cc2)N1CC(F)F (stereo partly drawn) [Compound B225, 6-(1-(1-(4-((1R,3R)-2-(2,2-difluoroethyl)-3-methyl-2,3,4,9-tetrahydro-1H-pyrido[3,4-b]indol-1-yl)phenyl)piperidine-4-carbonyl)piperidin-4-yl)-2-(2,6-dioxopiperidin-3-yl)-6,7-dihydropyrrolo[3,4-f]isoindole-1,3(2H,5H)-dione] | B (“B”: 10-100 nM) |
| C[C@@H]1Cc2c([nH]c3ccccc23)[C@@H](c2ccc(N3CCC(CN4CCC(N5Cc6cc7c(cc6C5)C(=O)N(C5CCC(=O)NC5=O)C7=O)CC4)CC3)cc2)N1CC(F)F (stereo partly drawn) [Compound B226, 6-(1-((1-(4-((1R,3R)-2-(2,2-difluoroethyl)-3-methyl-2,3,4,9-tetrahydro-1H-pyrido[3,4-b]indol-1-yl)phenyl)piperidin-4-yl)methyl)piperidin-4-yl)-2-(2,6-dioxopiperidin-3-yl)-6,7-dihydropyrrolo[3,4-f]isoindole-1,3(2H,5H)-dione] | B (“B”: 10-100 nM) |
| C[C@@H]1Cc2c([nH]c3ccccc23)[C@@H](c2ccc(N3CCC4(CCN(C(=O)CN5Cc6cc7c(cc6C5)C(=O)N(C5CCC(=O)NC5=O)C7=O)CC4)CC3)cc2)N1CC(F)F (stereo partly drawn) [Compound B227, 6-(2-(9-(4-((1R,3R)-2-(2,2-difluoroethyl)-3-methyl-2,3,4,9-tetrahydro-1H-pyrido[3,4-b]indol-1-yl)phenyl)-3,9-diazaspiro[5.5]undecan-3-yl)-2-oxoethyl)-2-(2,6-dioxopiperidin-3-yl)-6,7-dihydropyrrolo[3,4-f]isoindole-1,3(2H,5H)-dione] | B (“B”: 10-100 nM) |
| C[C@@H]1Cc2c([nH]c3ccccc23)[C@@H](c2ccc(N3CCC4(CCN(C(=O)CN5Cc6cc7c(cc6C5)C(=O)N(C5CCC(=O)NC5=O)C7=O)CC4)CC3)cn2)N1CC(F)F (stereo partly drawn) [Compound B228, 6-(2-(9-(6-((1S,3R)-2-(2,2-difluoroethyl)-3-methyl-2,3,4,9-tetrahydro-1H-pyrido[3,4-b]indol-1-yl)pyridin-3-yl)-3,9-diazaspiro[5.5]undecan-3-yl)-2-oxoethyl)-2-(2,6-dioxopiperidin-3-yl)-6,7-dihydropyrrolo[3,4-f]isoindole-1,3(2H,5H)-dione] | C (“C”: >100 nM) |
| C[C@@H]1Cc2c([nH]c3ccccc23)[C@@H](c2ccc(N3CCC4(CCN(C(=O)CN5Cc6cc7c(cc6C5)C(=O)N(C5CCC(=O)NC5=O)C7=O)CC4)CC3)nc2)N1CC(F)F (stereo partly drawn) [Compound B229, 6-(2-(9-(5-((1R,3R)-2-(2,2-difluoroethyl)-3-methyl-2,3,4,9-tetrahydro-1H-pyrido[3,4-b]indol-1-yl)pyridin-2-yl)-3,9-diazaspiro[5.5]undecan-3-yl)-2-oxoethyl)-2-(2,6-dioxopiperidin-3-yl)-6,7-dihydropyrrolo[3,4-f]isoindole-1,3(2H,5H)-dione] | B (“B”: 10-100 nM) |
| C[C@@H]1Cc2c([nH]c3ccccc23)[C@@H](c2ccc(N3CCC4(CCN(CC(=O)N5Cc6cc7c(cc6C5)C(=O)N(C5CCC(=O)NC5=O)C7=O)CC4)CC3)cn2)N1CC(F)F (stereo partly drawn) [Compound B230, 6-(2-(9-(6-((1S,3R)-2-(2,2-difluoroethyl)-3-methyl-2,3,4,9-tetrahydro-1H-pyrido[3,4-b]indol-1-yl)pyridin-3-yl)-3,9-diazaspiro[5.5]undecan-3-yl)acetyl)-2-(2,6-dioxopiperidin-3-yl)-6,7-dihydropyrrolo[3,4-f]isoindole-1,3(2H,5H)-dione] | C (“C”: >100 nM) |
